# According to patent publication US7439040B2, “Protease regulator screening assay” (Novartis Vaccines and Diagnostics, Inc., priority 1996, dated 2008):
# Values joined by “and” are separate entries in the source; they are usually repeats but may differ in a detail not shown here. Equal values may be shown once.
# Experiments:
# Format in all cases: biochemical
# HCV protease [1] = biological target: T1, HCV protease (Hepatitis C virus genotype 1a, UniProt P26664); test: HCV protease inhibitor screening assay using NS5A/5B cleavage site (pro A-NS5 substrate, anti-FLAG/HRP OD readout)
# T1 construct: Peptide 4A, a co-factor of the NS3 HCV protease; made in house
# Source text: The HCV Protease Inhibitor Screening Assay Using NS5A/5B as Cleavage Site Expression Construct and its Encoded Polypeptide
# A fragment encoding HCV NS5 peptide protease target site was inserted in frame into the polylinker region of pEZZ18 so that it is connected at the C-terminal region of Protein A. The NS5 peptide protease target site includes the NS5A and NS5B cleavage site, i.e., amino acids 2420 and 2421, 7 amino acids at the N-terminal side of the cleavage site, and 8 amino acids at the C-terminal side of the cleavage site.
# Another sequence fragment encoding the FLAG tag was inserted in frame at the C-terminal end of the NS5 peptide protease target site. The sequence fragment encodes three FLAG tags alternately spaced with two 4-Glycine spacers.
# Microwell plates containing 96 wells were prepared by coating the wells with IgG. Then the plates were dried. The purified protein NS5 was incubated with the dry plates for 1 hour at 37° C. to allow binding of the Protein A region of the protein to the IgG in the microwells.
# Protease was prepared by elution from a nickel column. Various concentrations of HCV protease were prepared. The protease was incubated with and without a known protease inhibitor, DCIC (di-chloro-iso-coumarin). The incubation was for 1 hour at room temperature. Subsequently the protease was transferred to the coated plates. […]
# Diluted monoclonal anti-FLAG mouse antibodies (available from Kodak) were added to the HCV protease treated plates and incubated with the plates for 1 hour at 37° C. The plates were subsequently washed and incubated with affinity purified goat anti-mouse-HRP (horse radish peroxidase) conjugates for 1 hour at 37° C. Then the plates were washed, and incubated with a developer such as o-phenylenediamine dihydrochloride (OPD). The optical density (OD) was determined at 492 and 620 nm settings.
# HCV protease [2] = biological target: T1, HCV protease; test: NS5A/5B as substrate to screen HCV protease inhibitor candidates; settings: control setup, pro A-NS5 substrate
# Experimental: The substrate polypeptide, (10 μg/well) in 200 μl was added to a human IgG coated plate and incubated for one hour. The plate was washed five times with wash buffer. The inhibitor, if any, was pre-incubated (diluted to 1 uM) with HCV protease, NS4A (0.2 uM) for one hour at room temperature. Peptide 4A, a co-factor of the NS3 HCV protease was added in different concentrations to all wells containing the protease mixture (20X concentration is 4 μM). […] The final concentration of the NS4A in each well was 4 μM. The plate was washed five times with wash buffer. Mouse anti-FLAG monoclonal antibody in the amount of 200 μl (1:200d from stock solution) was added to the designated wells and incubated one hour at 37° C. The plate was washed five times with wash buffer. Affinity purified goat anti-mouse (H+L)-HRP (Fab′)2 conjugate (1:5000d) in the amount of 200 μl was added to all the reaction wells except the blank well and incubated one hour at 37° C. The plate was washed five times with wash buffer. Then the plate was developed with OPD substrate for 30 minutes at room temperature. The plate was read with a microtiter plate reader at 490/620 nm.
# Using NS5A/5B as Substrate to Screen HCV Protease Inhibitor Candidates
# A target polypeptide was prepared having an anchor region, a linker region, a protease target site of HCV NS5A/5B, another linker region, and a FLAG epitope tag region. […]
# NS3 HCV protease = biological target: T2, NS3 HCV protease (Hepatitis C virus genotype 1a, UniProt P26664); test: HCV protease inhibitor screening assay using NS4B/5A cleavage site with co-factor peptide 4A; settings: DCIC 1 μM, duplicates
# T2 construct: Peptide 4A, a co-factor of the NS3 HCV protease; made in house
# Experimental: The HCV Protease Inhibitor Screening Assay Using NS4B/5A Cleavage Site
# Plate: Human IgG coated on HB COSTAR plate, 200 ng/well
# The protease: Ni-13 (F21) diluted 1:300 in the enzyme stock buffer
# The protease inhibitor: diluted to 1 mM in the enzyme stock buffer
# A substrate polypeptide was prepared having an anchor region (protein A), a linker, two protease target sites of NS4B/5A, another linker, and a FLAG epitope tag. The target polypeptide was expressed in sufficient quantities to conduct the assay.
# […] The plate was washed five times with wash buffer. The inhibitor, if any, was pre-incubated (diluted to 1 uM) with HCV protease, NS4A (0.2 uM) for one hour at room temperature. Peptide 4A, a co-factor of the NS3 HCV protease was added in different concentrations to all wells containing the protease mixture (20X concentration is 4 μM). The above mixture was transferred to the plate coated with IgG-4B/5A complex and incubated overnight at room temperature (about 20° C. −25° C.). The final concentration of the NS4A in each well was 4 μM. The plate was washed five times with wash buffer. Mouse anti-FLAG monoclonal antibody in the amount of 200 μl (1:200d from stock solution) was added to the designated wells and incubated one hour at 37° C. The plate was washed five times with wash buffer. Affinity purified goat anti-mouse (H+L)-HRP (Fab′)2 conjugate (1:5000d) in the amount of 200 μl was added to all the reaction wells except the blank well and incubated one hour at 37° C. The plate was washed five times with wash buffer. Then the plate was developed with OPD substrate for 30 minutes at room temperature. The plate was read with a microtiter plate reader at 490/620 nm.
# HCV protease [3] = biological target: T1, HCV protease; test: Short incubation time, NS5A/5B substrate HCV protease inhibitor screen; settings: control setup; duplicates; listed as control 4
# Experimental: Using a Short Incubation Time and NS5A/5B as a Substrate to Screen HCV Protease Inhibitors
# A target polypeptide was prepared having an anchor region (protein A) molecule, a linker, a protease target site of HCV NS5A/5B, another linker, and a FLAG epitope tag region. The target polypeptide was expressed in sufficient quantities to conduct the assay.
# The inhibitor was pre-incubated (diluted to 1 μM) with HCV protease (0.2 μM) for 1 hour at room temperature. A solution of NS5A/5B substrate (20 μg/well) was added to the pre-incubated protease and protease inhibitor mixture, and the total mixture was incubated for 15 minutes. The mixture was transferred to a human IgG coated plate and incubated for 1 hour at 37° C. The plate was washed five times with wash buffer.
# Two hundred microliter of mouse anti-FLAG monoclonal antibody (1:200d from stock solution) was added to the designated wells and incubated for 1 hour at 37° C. The plate was washed five times with wash buffer. Affinity purified goat anti-mouse (H+L)-HRPO (Fab′)2 conjugate (1:5000d) in the amount of 200 μl was added to all the reaction wells except the blank well and incubate 1 hour at 37° C. The plate was washed five times with wash buffer. The plate was developed with OPD substrate for 30 minutes at room temperature. The plate was read with a microtiter plate reader at 490/620 nm.
# [4] = protease, substrate and inhibitor preincubated overnight, pools 1:100 D
# T1 sequence (P26664 1027-1657): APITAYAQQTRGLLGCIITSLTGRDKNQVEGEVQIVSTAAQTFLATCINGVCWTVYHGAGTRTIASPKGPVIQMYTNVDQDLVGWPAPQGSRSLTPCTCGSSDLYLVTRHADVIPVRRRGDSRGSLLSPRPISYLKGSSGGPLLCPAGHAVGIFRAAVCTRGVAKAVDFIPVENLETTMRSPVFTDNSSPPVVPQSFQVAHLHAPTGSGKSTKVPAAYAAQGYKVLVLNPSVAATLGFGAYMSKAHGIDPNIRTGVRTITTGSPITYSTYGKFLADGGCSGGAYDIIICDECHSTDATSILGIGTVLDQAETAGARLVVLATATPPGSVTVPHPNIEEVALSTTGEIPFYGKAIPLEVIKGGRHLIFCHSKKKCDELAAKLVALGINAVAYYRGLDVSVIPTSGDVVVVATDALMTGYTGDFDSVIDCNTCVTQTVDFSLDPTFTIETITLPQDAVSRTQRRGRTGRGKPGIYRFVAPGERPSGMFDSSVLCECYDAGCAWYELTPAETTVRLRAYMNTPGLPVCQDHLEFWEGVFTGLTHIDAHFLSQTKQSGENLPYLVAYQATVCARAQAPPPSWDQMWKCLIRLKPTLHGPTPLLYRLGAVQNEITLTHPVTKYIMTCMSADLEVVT
# T2 sequence (P26664 1027-1657): as above
smiles,measurement,setting,value
"O=c1oc(Cl)c(Cl)c2ccccc12 [DCIC, di-chloro-iso-coumarin]",OD,"HCV protease [1]; preincubation of protease, substrate and inhibitor overnight, pro A-NS5 10 μg/ml, protease 1:100 D",1.578
same,OD,"HCV protease [1]; preincubation of protease, substrate and inhibitor overnight, pro A-NS5 10 μg/ml, protease 1:200 D",1.458
same,OD,"HCV protease [1]; preincubation of protease, substrate and inhibitor overnight, pro A-NS5 10 μg/ml, protease 1:500 D",1.083
same,"OD, Exp. 1",HCV protease [1]; [4],1.235
same,"OD, Exp. 2",HCV protease [1]; [4],0.768
same,OD,"HCV protease [1]; substrate and protease incubated for 2 hours, pro A-NS5 10 μg/ml, protease 1:100 D",1.137
same,OD,"HCV protease [1]; substrate and protease incubated for 2 hours, pro A-NS5 10 μg/ml, protease 1:200 D",1.235
same,OD,"HCV protease [1]; substrate and protease incubated for 2 hours, pro A-NS5 10 μg/ml, protease 1:500 D",0.503
same,OD,"HCV protease [1]; substrate and protease incubated for 2 hours, proA-NS5 2 μg/ml, protease 1:100 D",0.627
same,OD,"HCV protease [1]; substrate and protease incubated for 2 hours, proA-NS5 2 μg/ml, protease 1:200 D",0.631
same,OD,"HCV protease [1]; substrate and protease incubated for 2 hours, proA-NS5 2 μg/ml, protease 1:500 D",0.545
same,OD,"HCV protease [1]; substrate and protease incubated overnight, pro A-NS5 10 μg/ml, protease 1:100 D",0.899
same,OD,"HCV protease [1]; substrate and protease incubated overnight, pro A-NS5 10 μg/ml, protease 1:200 D",0.998
same,OD,"HCV protease [1]; substrate and protease incubated overnight, pro A-NS5 10 μg/ml, protease 1:500 D",0.887
same,OD,"HCV protease [1]; substrate and protease incubated overnight, proA-NS5 2 μg/ml, protease 1:100 D",0.449
same,OD,"HCV protease [1]; substrate and protease incubated overnight, proA-NS5 2 μg/ml, protease 1:200 D",0.467
same,OD,"HCV protease [1]; substrate and protease incubated overnight, proA-NS5 2 μg/ml, protease 1:500 D",0.328
same,OD w/ DMSO 1 μl,HCV protease [2]; with DMSO 1 μl,2.596
same,OD w/o DMSO,HCV protease [2]; without DMSO,2.915
same,OD of the reaction product,"NS3 HCV protease; substrate 4B/5A 5 μg/well, 10X peptide 4A",1.435 and 1.328
same,OD of the reaction product,"NS3 HCV protease; substrate 4B/5A 5 μg/well, 20X peptide 4A",1.374 and 1.373
same,OD of the reaction product,"NS3 HCV protease; substrate 4B/5A 5 μg/well, no peptide 4A",1.400 and 1.491
same,OD of the reaction product,"NS3 HCV protease; substrate 4B/5A 10 μg/well, 10X peptide 4A",1.729 and 1.715
same,OD of the reaction product,"NS3 HCV protease; substrate 4B/5A 10 μg/well, 20X peptide 4A",1.584 and 1.690
same,OD of the reaction product,"NS3 HCV protease; substrate 4B/5A 10 μg/well, no peptide 4A",1.769 and 1.686
same,"OD, 15 minutes preincubation",HCV protease [3],1.563 and 1.590
same,"OD, 1 hour preincubation",HCV protease [3],1.991 and 2.152
